From US20260070906A1, “IMIDAZO[4,5-C]PYRIDINE COMPOUNDS FOR THE TREATMENT OF CANCER” (Hoffmann-La Roche Inc., priority 2023, published 2026) come the findings set out here.

By EC50 is commonly meant the concentration at which the effect is half-maximal.

The target of one experiment is T1, human TLR7 (Homo sapiens, UniProt Q9NYK1).
T1 construct: host or cells: HEK293-Blue-hTLR7 (HEK293)
T1 sequence (Q9NYK1 27-1049): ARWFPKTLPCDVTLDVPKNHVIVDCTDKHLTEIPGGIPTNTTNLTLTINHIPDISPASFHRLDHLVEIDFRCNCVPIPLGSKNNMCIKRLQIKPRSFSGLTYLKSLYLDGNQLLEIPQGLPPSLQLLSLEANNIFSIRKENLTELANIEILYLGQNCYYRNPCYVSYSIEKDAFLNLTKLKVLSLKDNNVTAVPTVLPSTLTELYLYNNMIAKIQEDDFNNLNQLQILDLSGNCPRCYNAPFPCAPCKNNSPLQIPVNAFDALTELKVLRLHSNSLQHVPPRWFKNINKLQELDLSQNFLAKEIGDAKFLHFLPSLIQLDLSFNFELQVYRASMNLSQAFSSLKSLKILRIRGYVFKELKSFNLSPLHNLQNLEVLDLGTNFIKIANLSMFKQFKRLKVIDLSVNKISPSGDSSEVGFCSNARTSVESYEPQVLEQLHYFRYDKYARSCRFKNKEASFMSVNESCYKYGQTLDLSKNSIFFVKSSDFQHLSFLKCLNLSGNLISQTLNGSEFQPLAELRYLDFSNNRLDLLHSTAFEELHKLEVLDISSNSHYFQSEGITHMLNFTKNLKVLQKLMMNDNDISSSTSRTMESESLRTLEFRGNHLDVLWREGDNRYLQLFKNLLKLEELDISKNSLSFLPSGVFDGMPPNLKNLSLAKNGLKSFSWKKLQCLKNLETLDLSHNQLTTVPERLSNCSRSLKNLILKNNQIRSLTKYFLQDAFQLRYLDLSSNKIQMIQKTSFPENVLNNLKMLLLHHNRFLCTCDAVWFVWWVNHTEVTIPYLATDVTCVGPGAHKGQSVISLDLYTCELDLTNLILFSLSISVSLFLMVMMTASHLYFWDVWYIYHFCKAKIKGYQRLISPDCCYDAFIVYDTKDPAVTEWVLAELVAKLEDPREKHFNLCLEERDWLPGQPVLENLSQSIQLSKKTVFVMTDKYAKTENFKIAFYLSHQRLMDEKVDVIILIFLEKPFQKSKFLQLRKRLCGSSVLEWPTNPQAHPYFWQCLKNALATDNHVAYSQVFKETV
As to the kind of experiment: HEK293-Blue-hTLR7 cells assay (NF-κB SEAP reporter). The settings on record: 20 hrs incubation, agonism. It counts as cell-based. The source says:
A stable HEK293-Blue-hTLR7 cell line was purchased from InvivoGen (Cat. #: hkb-htlr7, San Diego, California, USA). These cells were designed for studying the stimulation of human TLR7 by monitoring the activation of NF-κB. A SEAP (secreted embryonic alkaline phosphatase) reporter gene was placed under the control of the IFN-β minimal promoter fused to five NF-κB and AP-1-binding sites. The SEAP was induced by activating NF-κB and AP-1 via stimulating HEK-Blue hTLR7 cells with TLR7 ligands. Therefore the reporter expression was regulated by the NF-κB promoter upon stimulation of human TLR7 for 20 hrs. The cell culture supernatant SEAP reporter activity was determined using QUANTI-Blue™ kit (Cat. #: rep-qbl, Invivogen, San Diego, Ca, USA) at a wavelength of 650 nm, a detection medium that turns purple or blue in the presence of alkaline phosphatase.
HEK293-Blue-hTLR7 cells were incubated at a density of 250,000˜450,000 cells/mL in a volume of 180 μL in a 96-well plate in Dulbecco's Modified Eagle's medium (DMEM) containing 4.5 g/L glucose, 100 U/mL penicillin, 100 μg/mL streptomycin, 100 μg/mL Normocin, 1% (V/V) GlutaMAX™, 10% (V/V) heat-inactivated fetal bovine serum for 24 hrs. Then the HEK293-Blue-hTLR-7 cells were incubated with addition of 20 μL test compound in a serial dilution in the presence of final DMSO at 1% and perform incubation under 37° C. in a CO2 incubator for 20 hrs. Then 20 μL of the supernatant from each well was incubated with 180 μL Quanti-blue substrate solution at 37° C. for 1 hours and the absorbance was read at 620-655 nm using a spectrophotometer. The signalling pathway that TLR7 activation leads to downstream NF-κB activation has been widely accepted, and therefore similar reporter assay was also widely used for evaluating TLR7 agonist (Tsuneyasu Kaisho and Takashi Tanaka, Trends in Immunology, Volume 29, Issue 7, July 2008, […]; Hiroaki Hemmi et al, Nature Immunology 3, 196-200 (2002)).

A further experiment deals with T2, human TLR8 (Homo sapiens, UniProt Q9NR97).
T2 construct: host or cells: HEK293-Blue-hTLR8 (HEK293)
T2 sequence (Q9NR97 27-1041): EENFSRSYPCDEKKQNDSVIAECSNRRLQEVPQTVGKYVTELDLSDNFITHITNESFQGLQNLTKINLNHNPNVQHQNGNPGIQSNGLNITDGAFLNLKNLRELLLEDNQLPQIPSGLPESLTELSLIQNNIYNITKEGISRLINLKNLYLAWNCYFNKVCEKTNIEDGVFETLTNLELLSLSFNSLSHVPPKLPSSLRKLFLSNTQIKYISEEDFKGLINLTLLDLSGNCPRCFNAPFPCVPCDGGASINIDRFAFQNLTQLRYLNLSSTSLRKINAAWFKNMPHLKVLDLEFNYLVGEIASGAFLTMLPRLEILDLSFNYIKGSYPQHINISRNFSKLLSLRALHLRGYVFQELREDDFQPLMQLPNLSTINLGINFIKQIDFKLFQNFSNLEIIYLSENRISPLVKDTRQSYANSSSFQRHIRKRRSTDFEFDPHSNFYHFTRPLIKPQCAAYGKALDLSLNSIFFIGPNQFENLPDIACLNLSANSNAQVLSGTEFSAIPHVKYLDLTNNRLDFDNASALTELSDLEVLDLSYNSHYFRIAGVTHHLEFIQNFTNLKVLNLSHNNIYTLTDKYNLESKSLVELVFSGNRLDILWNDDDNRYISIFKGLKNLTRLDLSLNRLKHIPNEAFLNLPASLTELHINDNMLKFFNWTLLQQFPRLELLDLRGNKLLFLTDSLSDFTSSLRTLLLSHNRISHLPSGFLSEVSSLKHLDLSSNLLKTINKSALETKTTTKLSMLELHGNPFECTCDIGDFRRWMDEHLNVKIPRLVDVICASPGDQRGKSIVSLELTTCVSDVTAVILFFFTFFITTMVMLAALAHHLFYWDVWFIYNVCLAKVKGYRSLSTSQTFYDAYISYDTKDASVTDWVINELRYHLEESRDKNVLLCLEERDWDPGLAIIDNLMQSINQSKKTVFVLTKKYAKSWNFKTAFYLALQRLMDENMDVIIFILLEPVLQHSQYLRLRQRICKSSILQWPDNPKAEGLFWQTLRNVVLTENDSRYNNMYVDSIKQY
The experiment in a line: HEK293-Blue-hTLR8 cells assay (NF-κB SEAP reporter). It counts as cell-based. The settings on record: 20 hours incubation, agonism. The text has this:
A stable HEK293-Blue-hTLR8 cell line was purchased from InvivoGen (Cat. #: hkb-htlr8, San Diego, California, USA). These cells were designed for studying the stimulation of human TLR8 by monitoring the activation of NF-κB. A SEAP (secreted embryonic alkaline phosphatase) reporter gene was placed under the control of the IFN-β minimal promoter fused to five NF-κB and AP-1-binding sites. The SEAP was induced by activating NF-κB and AP-1 via stimulating HEK-Blue hTLR8 cells with TLR8 ligands. Therefore the reporter expression was regulated by the NF-κB promoter upon stimulation of human TLR8. The cell culture supernatant SEAP reporter activity was determined using QUANTI-Blue™ kit (Cat. #: rep-qbl, Invivogen, San Diego, Ca, USA) at a wavelength of 650 nm, a detection medium that turns purple to blue in the presence of alkaline phosphatase.
HEK293-Blue-hTLR8 cells were incubated at a density of 250,000-450,000 cells/mL in a volume of 180 μL in a 96-well plate in Dulbecco's Modified Eagle's medium (DMEM) containing 4.5 g/L glucose, 100 U/mL penicillin, 100 μg/mL streptomycin, 100 μg/mL Normocin, 1% (V/V) GlutaMAX™, 10% (v/v) heat-inactivated fetal bovine serum for 24 hours. Then the HEK293-Blue-hTLR8 cells were incubated with addition of 20 μL test compound in a serial dilution in the presence of final DMSO at 1% and perform incubation under 37° C. in a CO2 incubator for 20 hours. Then 20 μL of the supernatant from each well was incubated with 180 μL Quanti-blue substrate solution at 37° C. for 1 hours and the absorbance was read at 620-655 nm using a spectrophotometer. The signalling pathway that TLR8 activation leads to downstream NF-κB activation has been widely accepted, and therefore similar reporter assay was also widely used for evaluating TLR8 agonist.

For the compound `CCOCc1nc2c(N)nc(C)c(Sc3ccc(CN(C)C)c4cn[nH]c34)c2[nH]1` [Example 19, 7-[[4-[(dimethylamino)methyl]-1H-indazol-7-yl]sulfanyl]-2-(ethoxymethyl)-6-methyl-1H-imidazo[4,5-c]pyridin-4-amine], the figures for the EC50 on human TLR7 and on human TLR8 were 48 nM and 43 nM, respectively.

With `CCOCc1nc2c(N)nc(C)c(Sc3ccc(CN(C)C)c(C)c3O)c2[nH]1` [Example 16, 6-[[4-amino-2-(ethoxymethyl)-6-methyl-1H-imidazo[4,5-c]pyridin-7-yl]sulfanyl]-3-[(dimethylamino)methyl]-2-methyl-phenol], the EC50 at human TLR7 worked out at 31 nM; on human TLR8, 22 nM.

For `CCOCc1nc2c(N)nc(C)c(Sc3ccc(C(C)N(C)C)cc3O)c2[nH]1` (stereo not drawn) [Example 24, 2-[[4-amino-2-(ethoxymethyl)-6-methyl-1H-imidazo[4,5-c]pyridin-7-yl]sulfanyl]-5-[1-(dimethylamino)ethyl]phenol], the EC50 turned out to be 22 nM at human TLR7 and 56 nM on human TLR8.

For `CCOCc1nc2c(N)nc(C)c(Sc3ccc(NCCN(C)C)nc3)c2[nH]1` [Example 30, N-[5-[[4-amino-2-(ethoxymethyl)-6-methyl-1H-imidazo[4,5-c]pyridin-7-yl]sulfanyl]-2-pyridyl]-N′,N′-dimethyl-ethane-1,2-diamine], the EC50 is 13 nM on human TLR7 and 11 nM at human TLR8.

Take `CCOCc1nc2c(N)nc(C)c(Sc3ccc(CN(C)C)cc3)c2n1C` [Example 7, 7-[4-[(dimethylamino)methyl]phenyl]sulfanyl-2-(ethoxymethyl)-1,6-dimethyl-imidazo[4,5-c]pyridin-4-amine]: the EC50 came to 27 nM on human TLR7 and 26 nM at human TLR8.

On to `CCOCc1nc2c(N)nc(C)c(Sc3ccc(CCN(C)C)cc3)c2[nH]1` [Example 31, 7-[4-[2-(dimethylamino)ethyl]phenyl]sulfanyl-2-(ethoxymethyl)-6-methyl-1H-imidazo[4,5-c]pyridin-4-amine], for which the EC50 at human TLR7 came to 18 nM; at human TLR8, 5 nM.

In the case of `CCOCc1nc2c(N)nc(C)c(Sc3ccc(CN(C)C)c(O)c3)c2[nH]1` [Example 11, 5-[[4-amino-2-(ethoxymethyl)-6-methyl-1H-imidazo[4,5-c]pyridin-7-yl]sulfanyl]-2-[(dimethylamino)methyl]phenol], the EC50 at human TLR7 was found to be 18 nM; on human TLR8 it was 4 nM.

For `CCCCc1nc2c(N)nc(C)c(Sc3ccc(CN(C)C)cc3)c2n1CC(C)(C)O` [Example 2, 1-[4-amino-2-butyl-7-[4-[(dimethylamino)methyl]phenyl]sulfanyl-6-methyl-imidazo[4,5-c]pyridin-1-yl]-2-methyl-propan-2-ol], the EC50 at human TLR7 amounted to 35 nM; on human TLR8 it was 28 nM.

For `CCCCc1nc2c(N)nc(C)c(Sc3ccc(CN(C)C)cc3)c2[nH]1` [Example 14, 2-butyl-7-[4-[(dimethylamino)methyl]phenyl]sulfanyl-6-methyl-1H-imidazo[4,5-c]pyridin-4-amine], the 50% effective concentration (EC50) is 15 nM at human TLR7 and 14 nM on human TLR8.

As to `CCOCc1nc2c(N)nc(C)c(Sc3ccc(CN4CCCC4)cc3O)c2[nH]1` [Example 22, 2-[[4-amino-2-(ethoxymethyl)-6-methyl-1H-imidazo[4,5-c]pyridin-7-yl]sulfanyl]-5-(pyrrolidin-1-ylmethyl)phenol], the EC50 at human TLR7 is 28 nM; on human TLR8, 37 nM.

For the compound `CCOCc1nc2c(N)nc(C)c([Se]c3ccc(CN(C)C)cc3)c2n1CC(C)(C)O` [Example 3, 1-[4-amino-7-[4-[(dimethylamino)methyl]phenyl]selanyl-2-(ethoxymethyl)-6-methyl-imidazo[4,5-c]pyridin-1-yl]-2-methyl-propan-2-ol], the EC50 at human TLR7 worked out at 28 nM; on human TLR8, 24 nM.

Take `CCOCc1nc2c(N)nc(C)c(Sc3ccc(CN4CCN(C)CC4)cc3N)c2[nH]1` [Example 27, 7-[2-amino-4-[(4-methylpiperazin-1-yl)methyl]phenyl]sulfanyl-2-(ethoxymethyl)-6-methyl-1H-imidazo[4,5-c]pyridin-4-amine]: the concentration giving a half-maximal response (EC50) amounted to 39 nM on human TLR7 and 52 nM on human TLR8.
